According to US20170064965A1, “ANTIMICROBIAL PEPTIDES DERIVED FROM PHAGE OF ACINETOBACTER BAUMANNII AND USE THEREOF” (Hualien Tzu Chi Hospital, Buddhist Tzu Chi Medical …, priority 2015, published 2017):
In brackets after ≈: the same amount, converted by molar mass. Where two headings read alike, the source gives them in different places. Where a SMILES comes first, the peptide text is derived from it.

Experiments:
Type in all cases: cell-based
[1] = tested on: Acinetobacter baumannii ATCC 19606; test: Broth microdilution MIC; details: ATCC 19606, standard strain
Protocol: (§1) Determination of Minimal Inhibitory Concentration (MIC)
(§2) In order to test the inhibitory effect of the antimicrobial peptides of the present disclosure, broth microdilution test was conducted to determine the minimal inhibition concentration (MIC) of the antimicrobial peptides against bacteria. The MIC represents the minimal concentration of the peptide which has the ability to inhibit bacteria growth completely.
(§3) Acinetobacter baumannii strains used in the examples in the conduction of the minimal inhibitory concentration and the minimum bactericidal concentration tests are shown in Table 2.

[2] = tested on: Acinetobacter baumannii ATCC 17978; test: Broth microdilution MIC; details: ATCC 17978, standard strain
Protocol: as §1, §2, §3

[3] = tested on: Acinetobacter baumannii ATCC 19606CR; details: colistin-resistant
Protocol: as §1, §2, §3

[4] = tested on: Acinetobacter baumannii 39400
Protocol: as §1, §2, §3

[5] = tested on: Acinetobacter baumannii 39181
Protocol: as §1, §2, §3

[6] = tested on: Acinetobacter baumannii ATCC 17978CR; details: colistin-resistant
Protocol: as §1, §2, §3

[7] = tested on: Acinetobacter baumannii 44820
Protocol: as §1, §2, §3

[8] = tested on: Acinetobacter baumannii BCRC 80276
Protocol: as §1, §2, §3

[9] = tested on: Acinetobacter baumannii ATCC 19606CR; details: colistin-resistant; remark: listed apart in the source
Protocol: (§4) Determination of Minimum Bactericidal Concentration (MBC)
(§5) In order to find out the minimum bactericidal concentration of the antimicrobial peptides of the present disclosure against bacteria, the surface of a suitable culture medium was covered by 100 μL of antimicrobial peptides at the minimal inhibitory concentration determined above with glass beads, then the medium was cultured at 37° C. for 24 hours, thereafter, and observation was conducted for 3 days. When no colony grew, it is the indication that the bacteria have been killed.
as §3

[10] = tested on: Acinetobacter baumannii 39400; remark: listed apart in the source
Protocol: as §4, §5, §3

[11] = tested on: Acinetobacter baumannii 39181; remark: listed apart in the source
Protocol: as §4, §5, §3

[12] = tested on: Acinetobacter baumannii ATCC 17978CR; details: colistin-resistant; remark: listed apart in the source
Protocol: as §4, §5, §3

[13] = tested on: Acinetobacter baumannii 44820; remark: listed apart in the source
Protocol: as §4, §5, §3

[14] = tested on: Acinetobacter baumannii BCRC 80276; remark: listed apart in the source
Protocol: as §4, §5, §3

[15] = tested on: Acinetobacter baumannii ATCC 19606; test: Minimum bactericidal concentration (MBC) determination; details: ATCC 19606, standard strain
Protocol: as §4, §5, §3

[16] = tested on: Acinetobacter baumannii ATCC 17978; test: as above; details: ATCC 17978, standard strain
Protocol: as §4, §5, §3

Acinetobacter baumannii [17] = test: MBC determination
Protocol: as §4, §5

Acinetobacter baumannii [18] = test: Broth microdilution MIC, summary in text
Protocol: as §1, §2

Acinetobacter baumannii [19] = test: Scanning electron microscope observation of bacterial destruction; details: 80 μM peptide, 1×10^9 CFU bacteria, 37° C., 1 hour
[20] = BCRC 80276, multidrug-resistant
[21] = Acinetobacter baumannii, summary of Table 3
[22] = multidrug-resistant Acinetobacter baumannii

Row | Structure (SMILES) | Minimal Inhibitory Concentration (MIC) [1] [µM] | Minimal Inhibitory Concentration (MIC) [2] [µM] | Minimal Inhibitory Concentration (MIC) [3] [µM] | Minimal Inhibitory Concentration (MIC) ([4]; 39400, multidrug-resistant) [µM] | Minimal Inhibitory Concentration (MIC) ([5]; 39181, multidrug-resistant) [µM] | Minimal Inhibitory Concentration (MIC) [6] [µM] | Minimal Inhibitory Concentration (MIC) ([7]; 44820, multidrug-resistant) [µM] | Minimal Inhibitory Concentration (MIC) [8, 20] [µM] | Minimum Bactericidal Concentration (MBC) [9] [µM] | Minimum Bactericidal Concentration (MBC) ([10]; 39400, multidrug-resistant) [µM] | Minimum Bactericidal Concentration (MBC) ([11]; 39181, multidrug-resistant) [µM] | Minimum Bactericidal Concentration (MBC) [12] [µM] | Minimum Bactericidal Concentration (MBC) ([13]; 44820, multidrug-resistant) [µM] | Minimum Bactericidal Concentration (MBC) [14, 20] [µM] | Minimum Bactericidal Concentration (MBC) [15] [µM] | Minimum Bactericidal Concentration (MBC) [16] [µM] | minimum bactericidal concentration (Acinetobacter baumannii [17]; [21]) [µM] | minimal inhibitory concentration (Acinetobacter baumannii [18]; [21]) [µM] | appearance of bacteria under scanning electron microscope (Acinetobacter baumannii [19]) | further results
1 | CC[C@H](C)[C@H](NC(=O)[C@H](C)NC(=O)[C@H](CCCCN)NC(=O)[C@H](CCC(N)=O)NC(=O)[C@@H](NC(=O)[C@H](C)NC(=O)[C@@H](NC(=O)[C@H](CC(C)C)NC(=O)[C@H](CCCCN)NC(=O)[C@H](CCC(=O)O)NC(=O)[C@H](CC(C)C)NC(=O)[C@H](C)NC(=O)[C@H](CCCCN)NC(=O)[C@@H](N)CCC(=O)O)[C@@H](C)CC)[C@@H](C)CC)C(=O)N[C@@H](CCCCN)C(=O)NCC(=O)N[C@@H](CCSC)C(=O)N[C@@H](CC(C)C)C(=O)N[C@@H](CC(N)=O)C(=O)NCC(=O)N[C@@H](Cc1c[nH]c2ccccc12)C(=O)N[C@@H](Cc1ccccc1)C(=O)N[C@H](C(=O)NCC(=O)N[C@H](C(=O)N[C@@H](Cc1ccccc1)C(=O)N[C@@H](CCCNC(=N)N)C(=O)N[C@@H](CCCNC(=N)N)C(=O)N[C@@H](CCCCN)C(=O)N[C@@H](CCCNC(=N)N)C(=O)O)C(C)C)[C@@H](C)O [LysAB2 113-145 G1] (H-EKALEKLIAIQKAIKGMLNGWFTGVFRRKR-OH; N-terminus and C-terminus assumed) | 8 | 8 | 16 | 8 | 8 | 16 | 8 | 8 | 16 | 8 | 8 | 16 | 8 | 8 | 8 | 8 |  |  |  | 
2 | CC[C@H](C)[C@H](NC(=O)[C@H](C)NC(=O)[C@H](CCCCN)NC(=O)[C@H](CCC(N)=O)NC(=O)[C@@H](NC(=O)[C@H](C)NC(=O)[C@@H](NC(=O)[C@H](CC(C)C)NC(=O)[C@H](CCCCN)NC(=O)[C@H](CCC(=O)O)NC(=O)[C@H](CC(C)C)NC(=O)[C@H](C)NC(=O)[C@H](CCCCN)NC(=O)[C@@H](N)CCC(=O)O)[C@@H](C)CC)[C@@H](C)CC)C(=O)N[C@@H](CCCCN)C(=O)NCC(=O)N[C@@H](CCSC)C(=O)N[C@@H](CC(C)C)C(=O)N[C@@H](C)C(=O)NCC(=O)N[C@@H](Cc1c[nH]c2ccccc12)C(=O)N[C@@H](Cc1ccccc1)C(=O)N[C@H](C(=O)NCC(=O)N[C@H](C(=O)N[C@@H](C)C(=O)N[C@@H](CCCNC(=N)N)C(=O)N[C@@H](CCCNC(=N)N)C(=O)N[C@@H](CCCCN)C(=O)N[C@@H](CCCNC(=N)N)C(=O)O)C(C)C)[C@@H](C)O [LysAB2 113-145 G3] (H-EKALEKLIAIQKAIKGMLAGWFTGVARRKR-OH) | 16 | 16 | 16 |  |  | 16 |  |  | 32 |  |  | 32 |  |  | 16 | 16 |  |  |  | Minimal Inhibitory Concentration (MIC) [4]; 39400: 16 µM; Minimal Inhibitory Concentration (MIC) [5]; 39181: 16 µM; Minimal Inhibitory Concentration (MIC) [7]; 44820: 16 µM; Minimal Inhibitory Concentration (MIC) ([8]; BCRC 80276): 16 µM; Minimum Bactericidal Concentration (MBC) [10]; 39400: 16 µM; Minimum Bactericidal Concentration (MBC) [11]; 39181: 16 µM; Minimum Bactericidal Concentration (MBC) [13]; 44820: 16 µM; Minimum Bactericidal Concentration (MBC) ([14]; BCRC 80276): 16 µM
3 | CC[C@H](C)[C@H](NC(=O)[C@H](C)NC(=O)[C@H](CCCCN)NC(=O)[C@H](CCC(N)=O)NC(=O)[C@@H](NC(=O)[C@H](C)NC(=O)[C@@H](NC(=O)[C@H](CC(C)C)NC(=O)[C@H](CCCCN)NC(=O)[C@H](CCC(=O)O)NC(=O)[C@H](CC(C)C)NC(=O)[C@H](C)NC(=O)[C@H](CCCCN)NC(=O)[C@H](CCC(=O)O)NC(=O)[C@@H]1CCCN1C(=O)[C@@H](N)CC(N)=O)[C@@H](C)CC)[C@@H](C)CC)C(=O)N[C@@H](CCCCN)C(=O)NCC(=O)N[C@@H](CCSC)C(=O)N[C@@H](CC(C)C)C(=O)N[C@@H](CC(N)=O)C(=O)NCC(=O)N[C@@H](Cc1c[nH]c2ccccc12)C(=O)N[C@@H](Cc1ccccc1)C(=O)N[C@H](C(=O)NCC(=O)N[C@H](C(=O)NCC(=O)N[C@@H](Cc1ccccc1)C(=O)N[C@@H](CCCNC(=N)N)C(=O)N[C@@H](CCCNC(=N)N)C(=O)N[C@@H](CCCCN)C(=O)N[C@@H](CCCNC(=N)N)C(=O)O)C(C)C)[C@@H](C)O [LysAB2 113-145 G4] (H-NPEKALEKLIAIQKAIKGMLNGWFTGVGFRRKR-OH; N-terminus and C-terminus assumed) | 4 |  | 8 | 4 | 4 | 8 | 4 | 4 | 8 | 4 | 4 | 8 | 4 | 4 | 4 |  | 4 (≈ 15.1 µg/mL) | 4 (≈ 15.1 µg/mL) | incomplete surface and holes thereon | minimum bactericidal concentration (Acinetobacter baumannii [17]; [22]): 4 µM (≈ 15.1 µg/mL); minimal inhibitory concentration (Acinetobacter baumannii [18]; [22]): 4 µM (≈ 15.1 µg/mL)
4 | CC[C@H](C)[C@H](NC(=O)[C@H](C)NC(=O)[C@@H](NC(=O)[C@H](CCC(N)=O)NC(=O)[C@@H](NC(=O)[C@H](C)NC(=O)[C@@H](NC(=O)[C@H](CC(C)C)NC(=O)[C@@H]1CCCN1C(=O)[C@H](CCC(=O)O)NC(=O)[C@H](CC(C)C)NC(=O)[C@H](C)NC(=O)[C@H](CCCCN)NC(=O)[C@H](CCC(=O)O)NC(=O)[C@@H]1CCCN1C(=O)[C@@H](N)CC(N)=O)[C@@H](C)CC)[C@@H](C)CC)[C@@H](C)CC)C(=O)N[C@@H](CCCCN)C(=O)NCC(=O)N[C@@H](CCSC)C(=O)N[C@@H](CC(C)C)C(=O)N[C@@H](CC(N)=O)C(=O)NCC(=O)N[C@@H](Cc1c[nH]c2ccccc12)C(=O)N[C@@H](Cc1ccccc1)C(=O)N[C@H](C(=O)NCC(=O)N[C@H](C(=O)NCC(=O)N[C@@H](Cc1ccccc1)C(=O)N[C@@H](CCCNC(=N)N)C(=O)N[C@@H](CCCNC(=N)N)C(=O)N[C@@H](CCCCN)C(=O)N[C@@H](CCCNC(=N)N)C(=O)O)C(C)C)[C@@H](C)O [LysAB2 113-145] (H-NPEKALEPLIAIQIAIKGMLNGWFTGVGFRRKR-OH; N-terminus and C-terminus assumed) | 64 |  | 64 | 64 | 64 | 64 | 64 | 64 | 64 | 64 | 64 | 64 | 64 | 64 | 64 |  | 64 (≈ 238 µg/mL) | 64 (≈ 238 µg/mL) | surface of the bacterial body is incomplete and has holes thereon, even is broken | 
